Where two headings read alike, the source gives them in different places. Where only a bound is given, the exact number is not on record here.

This is an account of results in patent US20060166996A1, “Phthalazine derivatives as phosphodiesterase 4 inhibitors” (Zambon Group S.P.A., priority 2002, published 2006).

For one experiment, the system named is TNFα release. In words: TNFα release in whole human blood (LPS, ELISA). It is filed as cell-based. The procedure: The blood samples obtained from healthy volunteers were collected in heparinised tubes and diluted 1:5 with RPMI 1640 without serum addition.
The test was carried out in 96-well plates and samples containing 150 μl of diluted blood and 150 μl of RPMI 1640 with control vehicle or with different concentration of the compounds of the present invention were incubated at 37° C. in a 5% CO2 humidified atmosphere for 30 minutes.
The whole blood in the assay samples was diluted 1:10 (v/v).
The samples were stimulated with LPS (lipopolysaccharide from E. Coli: serotype B 0:55, Sigma) 0.25 μg/ml and incubated for 24 hours.
After centrifugation, the supernatants were collected for TNFα levels determination by a commercially available ELISA kit (Biosource).
The test objects were dissolved in DMSO at 10^−2 M and further diluted in RPMI 1640. […] Each compound was tested in duplicate at nine concentrations and the data obtained were further confirmed using blood samples from different donors.
The percent inhibition of TNFα production at each concentration was calculated and IC50 was determined using a 4-parameters logistic equation (Origin calculation program, Microcal Software Inc.)
A general note: In an ELISA, binding on a coated surface is turned into a signal by an enzyme label.

A further experiment addresses PDE 5 (Homo sapiens, UniProt O76074). In words: PDE 5 enzyme inhibition (SPA). It is filed as biochemical, healthy volunteers. To be noted: PDE 5 from platelet rich plasma; 3H-cGMP; read-out: PDE 3-5 IC 50 (nM): PDE 5. The procedure: PDE 3 and PDE 5 enzymes were purified from platelet rich plasma (PRP) obtained from healthy volunteers.
PDE 3 and PDE 5 enzymes were purified according to Simpson A. W. M. et al. (Biochem. Pharmacol. 1988, 37, 2315-2320) partially modified for the FPLC technique (Fast Protein Liquid Chromatography).
The PRP was diluted 1:2 in saline solution and centrifuged at 2000×g for 15 minutes at room temperature.
The pellet was suspended in 10 ml of lysis solution (155 mM NH4Cl, 10 mM KHCO3 and 0.1 mM Na2EDTA pH 7.4) and incubated for 10 minutes on ice-bath to remove erythrocyte contamination.
After centrifugation, platelets were suspended in 10 ml of 20 mM Bis-Tris, 2 mM EDTA, 5 mM β-mercaptoethanol, 50 mM sodium acetate, 2 mM benzamidine) and homogenised with a Polytron homogeniser on ice-bath.
The homogenate was centrifuged and the supernatant applied to a UNO Q12 column connected to a Biologic Chromatography system (FPLC, BIO RAD).
PDE 3 and PDE 5 enzymes were eluted with a linear 0.05-1M sodium acetate gradient and the elution fractions were collected for PDE enzymes activity assay.
Fractions containing PDE activities were pooled, dialysed overnight against distilled water and concentrated 10 times by an Amicon filtration system (using YM10 membrane filter). Ethylene glycol was added to a final concentration of 30% v/v and the solution stored at −20° C.
Enzymatic activity was stable for several weeks under these conditions.
Enzymes activity assay were performed using Scintillation Proximity Assay (SPA) Amersham kit consisting of tracer ^3H-cAMP for PDE3 or ^3H-cGMP for PDE5, PDE assay buffer (10×solution: 500 mM TRIS/HCl pH 7.5, 83 mM MgCl2 and 17 mM EGTA) and Yttrium SPA PDE beads (containing 18 mM zinc sulphate).
(§1) The radioactivity of the beads was measured using a scintillation counter (Packard model MINAXI β TRI-CARB 4000 SERIES).

A further experiment deals with T1, PDE 1 (Bos taurus, UniProt P14100).
T1 construct: partially purified from bovine heart; purchased Sigma P0520; host or cells: bovine heart
T1 sequence (P14100 1-514 isoform P14100-2): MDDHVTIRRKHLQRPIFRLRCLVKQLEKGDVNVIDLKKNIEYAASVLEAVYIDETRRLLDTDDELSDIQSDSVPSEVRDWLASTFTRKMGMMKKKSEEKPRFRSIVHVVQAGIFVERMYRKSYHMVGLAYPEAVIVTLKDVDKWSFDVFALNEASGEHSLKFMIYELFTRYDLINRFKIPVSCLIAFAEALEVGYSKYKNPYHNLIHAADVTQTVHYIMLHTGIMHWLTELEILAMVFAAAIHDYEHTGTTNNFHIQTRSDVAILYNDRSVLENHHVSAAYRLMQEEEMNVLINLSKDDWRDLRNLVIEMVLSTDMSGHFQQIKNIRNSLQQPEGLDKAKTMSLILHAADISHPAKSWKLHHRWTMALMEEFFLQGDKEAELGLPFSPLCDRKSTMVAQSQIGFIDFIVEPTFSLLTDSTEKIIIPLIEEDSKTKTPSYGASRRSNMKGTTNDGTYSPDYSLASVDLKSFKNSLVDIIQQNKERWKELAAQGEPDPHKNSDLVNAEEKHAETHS
In words: PDE 1 enzyme inhibition (SPA). The class given is biochemical. To be noted: PDE 1 from bovine heart (Sigma P0520); read-out: PDE 1 IC 50. The procedure: Lyophilised PDE 1 enzyme, partially purified from bovine heart, was purchased from Sigma (P0520).
The enzyme consists of the PI fraction reported by Ho et al. (Biochim Biophys Acta, 1976, vol. 429(2), 461-473).
The lyophilised enzyme was reconstituted with 30% v/v ethylene glycol at a concentration of 500 µg/ml and stored at −20° C.
PDE 1 activity was determined using the Scintillation Proximity Assay (SPA) Amersham kit consisting of tracer ^3H-cAMP, PDE assay buffer (10×solution: 500 mM TRIS/HCl pH 7.5, 83 mM MgCl2 and 17 mM EGTA) and Yttrium SPA PDE beads (containing 18 mM zinc sulphate).
as §1

The mark [1] stands for this setting: h-WB (whole human blood), LPS stimulated, read-out: IC 50 (nM) h-WB.
Where [2] appears, read: whole human blood diluted 1:10, LPS 0.25 μg/ml, 24 hours, read-out: IC 50 (nM) h-WB 1:10.

For `COc1ccc2c(Cc3c(Cl)cncc3Cl)nnc(-c3cccc(C(=O)O)c3)c2c1` [Compound 2, 3-[4-(3,5-dichloro-pyridin-4-ylmethyl)-7-methoxy-phthalazin-1-yl]-benzoic Acid], the IC50 in the experiment on TNFα release (setting [1]) is 33000 nM; in the experiment with TNFα release (setting [2]), 2470 nM; at PDE 5 it was more than 10000 nM; on PDE 1, more than 10 µM.

Regarding `O=C(O)c1cccc(-c2nnc(Cc3c(Cl)cncc3Cl)c3ccc(OC(F)F)cc23)c1` [Compound 8, 3-[4-(3,5-dichloro-pyridin-4-ylmethyl)-7-difluoromethoxy-phthalazin-1-yl]-benzoic Acid], the IC50 in the experiment on TNFα release (setting [1]) was 14300 nM; with TNFα release (setting [2]) it was 1230 nM; on PDE 5, more than 10000 nM; on PDE 1, more than 10 µM.

Take `COc1ccc2c(Cc3c(Cl)cncc3Cl)nnc(-c3sccc3C(=O)O)c2c1` [Compound 10, 2-[4-(3,5-dichloro-pyridin-4-ylmethyl)-7-methoxy-phthalazin-1-yl]-thiophene-3-carboxylic Acid]: the IC50 with TNFα release (setting [2]) is 18000 nM; at PDE 5, more than 10000 nM; at PDE 1, more than 10 µM.
